{"source": "patent US20130317092A1", "about": "(priority 2007, published 2013)", "key": {"AChE": {"tested_on": "AChE", "test": "AChE catalytic activity (Ellman) in RAW 264.7 cells", "format": "cell-based, murine"}, "AChmiRNA": {"tested_on": "AChmiRNA", "design": "species or system mice", "details": "mouse"}, "Meg-01 cells [1]": {"tested_on": "Meg-01 cells", "test": "Ploidy / DNA content of Meg-01 cells by FACS and propidium iodide", "format": "cell-based, human", "details": "72 hours"}, "AChE-R mRNA": {"tested_on": "AChE-R mRNA", "test": "AChE-R mRNA level (RT-PCR, fluorescent in situ hybridization) in Meg-01 cells", "format": "cell-based, human", "details": "for AChE-R mRNA level by FISH (population distribution): agent alone; for AChE-R mRNA level on co-administration with Thapsi: Thapsi 10 nM plus oligo 100 nM"}, "PKCβII": {"tested_on": "PKCβII", "test": "PKCβII immunocytochemistry in Meg-01 cells", "format": "cell-based, human", "details": "24 hours"}, "AChmiRNA (miRNA-181a)": {"tested_on": "AChmiRNA (miRNA-181a)", "test": "AChmiRNA (miRNA-181a) level by real-time RT-PCR in Meg-01 cells", "format": "cell-based, human"}, "c-Myc": {"tested_on": "c-Myc", "test": "c-Myc immunohistochemistry in Meg-01 cells", "format": "cell-based, human"}, "Meg-01 cells [2]": {"tested_on": "Meg-01 cells", "test": "Nuclear area measurement of Meg-01 cells", "format": "cell-based, human", "details": "24 hours"}, "Meg-01 cells [3]": {"tested_on": "Meg-01 cells", "test": "Scanning electron microscopy of Meg-01 cell surface (megakaryocytic maturation)", "format": "cell-based, human", "details": "24 hour treatment"}, "AChE-S": {"tested_on": "AChE-S", "test": "AChE-S protein immunocytochemistry in Meg-01 cells", "format": "cell-based, human", "details": "24 hours"}, "Meg-01 cells [4]": {"tested_on": "Meg-01 cells", "test": "Adhesion assay of MEG-01 cells", "format": "cell-based, human", "details": "72 hours"}, "Bcl-2": {"tested_on": "Bcl-2", "test": "Bcl-2 immunostaining in Meg-01 cells", "format": "cell-based, human"}, "Meg-01 cells [5]": {"tested_on": "Meg-01 cells", "test": "DNA fragmentation by TUNEL assay in Meg-01 cells", "format": "cell-based, human"}, "activated caspase-3": {"tested_on": "activated caspase-3", "test": "Activated caspase-3 immunostaining in Meg-01 cells", "format": "cell-based, human", "details": "24 hours, agent alone"}, "activated caspase-9": {"tested_on": "activated caspase-9", "test": "Activated caspase-9 immunostaining in Meg-01 cells", "format": "cell-based, human"}, "ASF/SF2": {"tested_on": "ASF/SF2", "test": "Splice factor ASF/SF2 in Meg-01 cells", "format": "cell-based, human", "details": "data not shown"}, "AChE-R": {"tested_on": "AChE-R", "test": "AChE-R protein immunocytochemistry in Meg-01 cells", "format": "cell-based, human", "details": "24 hours"}, "AChE-S mRNA": {"tested_on": "AChE-S mRNA", "test": "AChE-S mRNA level (fluorescent in situ hybridization) in Meg-01 cells", "format": "cell-based, human", "details": "for AChE-S mRNA level by FISH: agent alone; for AChE-S mRNA level on co-administration with Thapsi: Thapsi 10 nM plus oligo 100 nM"}, "[6]": {"tested_on": "Murine macrophage RAW 264.7 cells", "test": "Nitric oxide production (nitrite, Griess) by RAW 264.7 macrophages", "format": "cell-based", "procedure": "Murine macrophage RAW 264.7 cells were cultured in 48 well plates (50×10^3 cells per well). The production of NO by these macrophages was examined following various stimuli (6 repetitions for each treatment) at three time intervals (6, 12 and 24 hours) as depicted in FIGS. 27a, 27b and 27c.\nMouse RAW cells, human U937 cells and primary human macrophages were treated for 24 h with 1 μM CpG oligonucleotides or 1 μg/ml bacterial lipopolysaccharide added to standard growth medium\nInterleukin 6 expression was assayed by QRT-PCR, nitric oxide was measured by Griess assay and prostaglandin E2 levels were measured by R&D ELISA kit according to manufacturer's instructions."}, "miRNA181a": {"tested_on": "miRNA181a", "test": "Northern blot of miRNA181a in Meg-01 cells", "format": "cell-based, human", "details": "in the presence or absence of Thapsi and/or AChmiON", "procedure": "Cultured Meg-01 cells were co-incubated with thapsigargin (10 nM) and synthetic AChmiON (miR-181) (SEQ ID NO:23; at 100 nM) or anti-miR-181 (SEQ ID NO:24 (modified, identical in sequence to SEQ ID NO:2); at 100 nM."}}, "note": "“Also recorded” adds a separate entry of the source."}
{"compound": "C=CC[N+](C)(C)c1ccc(CCC(=O)CCc2ccc([N+](C)(C)CC=C)cc2)cc1.[Br-].[Br-]", "note": "[BW284c51, 1,5-Bis(4-allyldimethylammoniumphenyl)pentan-3-one dibromide]", "values": [{"measurement": "AChE activity", "setting": "AChE; RAW 264.7 cells, 24 hr, LPS 1 μg/ml, BW 284 C51 10 μM (Example 13)", "value": "reduced AChE activity"}, {"measurement": "AChE activity", "setting": "AChE; macrophages (RAW 264.7), 1 micromolar BW284c51, 100 nanomolar CpG 1826", "value": "decrease"}]}
{"compound": "CN1CC=C(c2ccccc2)CC1", "note": "[MPTP, 1-Methyl-4-phenyl-1,2,3,6-tetrahydropyridine]", "values": [{"measurement": "AChmiRNA levels in vivo", "setting": "AChmiRNA", "value": "decreases of AChmiRNA levels"}]}
{"compound": "C/C=C(/C)C(=O)O[C@H]1C(C)=C2[C@H]([C@@H]1OC(=O)CCCCCCC)[C@@](C)(OC(C)=O)C[C@H](OC(=O)CCC)[C@@]1(O)[C@H]2OC(=O)[C@@]1(C)O", "note": "[Thapsi, Thapsigargin]", "values": [{"measurement": "ploidy (DNA content)", "setting": "Meg-01 cells [1]", "value": "a bigger fraction of cells became polyploid"}, {"measurement": "AChE-R mRNA level (RT-PCR)", "setting": "AChE-R mRNA; 24 hours", "value": "increasing the levels of AChE-R mRNA variant"}, {"measurement": "AChE-R mRNA level by FISH (population distribution)", "setting": "AChE-R mRNA", "value": "rightward shift in the population distribution of labeling intensity; also recorded: increase in AChE-R mRNA level"}, {"measurement": "staining intensity for PKCβ", "setting": "PKCβII", "value": "increased staining intensity for PKCβ"}, {"measurement": "level of AChmiRNA", "setting": "AChmiRNA (miRNA-181a); Meg-01 cells treated for 24 hours, agent alone", "value": "induced a decrease in AChmiRNA"}, {"measurement": "decrease in the levels of AChmiRNA", "setting": "AChmiRNA (miRNA-181a); Meg-01 cells, Thapsi treatment (ER-calcium release), real-time RT-PCR", "value": 50, "unit": "%"}, {"measurement": "c-myc expression", "setting": "c-Myc; agent alone", "value": "c-myc increase induced by Thapsi"}, {"measurement": "nuclear area / nuclei size", "setting": "Meg-01 cells [2]", "value": "increase in the nuclear area"}, {"measurement": "cell surface morphology (scanning electron microscopy)", "setting": "Meg-01 cells [3]", "value": "a very early stage in the formation of demarcation membranes"}, {"measurement": "expression of the AChE-S variant (immunohistochemistry)", "setting": "AChE-S", "value": "decrease of expression of the AChE-S variant"}, {"measurement": "cell adhesion", "setting": "Meg-01 cells [4]", "value": "increased adhesion of treated cells"}, {"measurement": "immunoreactivity of Bcl-2", "setting": "Bcl-2", "value": "decrease in the immunoreactivity of Bcl-2"}, {"measurement": "DNA fragmentation / cell death (TUNEL)", "setting": "Meg-01 cells [5]", "value": "no significant changes"}, {"measurement": "incidence of activated caspase-3 positive cells", "setting": "activated caspase-3", "value": "increase in the incidence of activated caspase-3 positive cells"}, {"measurement": "incidence of activated caspase-9 positive cells", "setting": "activated caspase-9", "value": "increased the incidence of positive cells for activated caspase-9 immunostaining"}, {"measurement": "splice factor ASF/SF2", "setting": "ASF/SF2", "value": "induced"}, {"measurement": "AChE-R protein level (immunohistochemistry)", "setting": "AChE-R", "value": "increase also in the protein level"}, {"measurement": "AChE-S mRNA level by FISH", "setting": "AChE-S mRNA", "value": "decrease in AChE-S mRNA level"}]}
{"compound": "AChmiON: fully 2′-O-methylated oligonucleotide with the sequence of human/murine miRNA-181a (modified SEQ ID NO:23; unmodified SEQ ID NO:1) (AACAUUCAACGCUGUCGGUGAGU; all 2'-O-methyl, backbone not given here)", "values": [{"measurement": "speed of the NO response", "setting": "[6]; RAW 264.7, 6, 12 and 24 hours", "value": "slower than the response to LPS or IFN-γ"}, {"measurement": "maximal NO effect relative to the LPS effect", "setting": "[6]; RAW 264.7, 24 hour post-treatment, AChmiON 100 nM", "value": "about 80%"}, {"measurement": "Nitrite concentration reflecting NO production", "setting": "[6]; RAW 264.7, 24 hours, LPS 1 μg/ml, IFN-γ 4 ng/ml, oligos 100 nM", "value": 38, "unit": "µM"}, {"measurement": "NO production versus control (in words)", "setting": "[6]; RAW 264.7 macrophages", "value": "significantly up-regulated NO production"}, {"measurement": "AChE-R mRNA level on co-administration with Thapsi", "setting": "AChE-R mRNA", "value": "inhibiting the increase in AChE-R mRNA level"}, {"measurement": "AChE-R mRNA level by FISH (population distribution)", "setting": "AChE-R mRNA", "value": "levels remained unchanged"}, {"measurement": "Thapsi-induced c-myc increase on co-treatment", "setting": "c-Myc; Thapsi plus AChmiON", "value": "could not prevent the c-myc increase induced by Thapsi"}, {"measurement": "cell adhesion", "setting": "Meg-01 cells [4]", "value": "suppressed this effect"}, {"measurement": "DNA fragmentation / cell death (TUNEL)", "setting": "Meg-01 cells [5]", "value": "increased incidence of positive cells; also recorded: significantly increased apoptosis"}, {"measurement": "Thapsi-induced ASF/SF2 on co-treatment", "setting": "ASF/SF2; Thapsi plus AChmiON", "value": "suppressed part of this effect"}, {"measurement": "AChE-S mRNA level on co-administration with Thapsi", "setting": "AChE-S mRNA", "value": "keeping AChE-S mRNA level above control values"}, {"measurement": "AChE-S mRNA level by FISH", "setting": "AChE-S mRNA", "value": "increased the fraction of cells with high AChE-S levels"}]}
{"compound": "anti-AChmiRNA: antisense oligonucleotide complementary to AChmiRNA (SEQ ID NO:2; modified SEQ ID NO:24) (ACUCACCGACAGCGUUGAAUGUU; modified, pattern not given here)", "values": [{"measurement": "AChE-R mRNA level on co-administration with Thapsi", "setting": "AChE-R mRNA", "value": "maintaining the increase in AChE-R mRNA"}, {"measurement": "level of AChmiRNA (miRNA181a) by Northern blot", "setting": "miRNA181a", "value": "decreased the level of anti-AChmiRNA"}, {"measurement": "level of AChmiRNA (miRNA181a) by Northern blot", "setting": "miRNA181a; listed as anti-miR181", "value": "reducing the level of miRNA181a in the presence or absence of Thapsi and/or AChmiON"}, {"measurement": "DNA fragmentation / cell death (TUNEL)", "setting": "Meg-01 cells [5]", "value": "normal level of TUNEL staining"}, {"measurement": "AChE-S mRNA level on co-administration with Thapsi", "setting": "AChE-S mRNA", "value": "prevented the Thapsigargin-induced suppression of AChE-S mRNA"}]}
